Tests used:
[1] = tested on: Swiss 3T3 cells expressing a dominant-negative FGFR1 mutant; assay: DNA synthesis assay, (3H)-thymidine autoradiography; assay type: cell-based, murine; conditions: 10 μg/ml α-thrombin
Description: A combination of (^3H)-thymidine autoradiography and immunohistochemistry was used to evaluate the levels of DNA synthesis in Swiss 3T3 cells expressing a dominant-negative FGFR1 mutant. Swiss 3T3 cells were plated at 50% confluency on glass coverslips precoated with fibronectin (10 μg/cm^2) for 24 hours. The cells were transfected with the pCS2 vector expressing a dominant-negative X. laevis FGFR1 deletion mutant lacking the FGFR1 intracellular domain (a gift from Dr. R. Friesel) using the Fugene 6 reagent (Roche). After 24 hours, the medium was changed to DMEM containing 0.25% BCS and following a 48 hour incubation in low BCS, the cells were stimulated with either 10 μg/ml of α-thrombin, 10% BCS or 10 ng/ml of recombinant FGF1 plus 10 units/ml of heparin. After stimulation for 24 hours, (^3H)-thymidine (NEN; 1 μCi/ml) was added to the medium and cells were incubated for 12 hours and fixed with 4% neutral formaldehyde. […] The percentage of (^3H)-labeled nuclei among the dnFGFR1-positive and dnFGFR1-negative cells was quantitated using an inverted Olympus microscope.
Thus, a dominant-negative (dn) FGFR1 construct was expressed in Swiss 3T3 cells and their proliferative index measured in the presence and absence of exogenous thrombin.

[2] = tested on: secondary NCSC populations; assay: Dosage sensitivity of secondary NCSC to instructive differentiation factors BMP2 and sDl1; assay type: cell-based; conditions: clones expanded 18 days; 5 μM TRAP, sJ1 or thrombin
Description: Secondary NCSC population were generated from founder NCSC clones after 13 days of growth in Morrison media supplemented either with 7.5 nM sJ1 (▴-▴), 5 μg/ml α-thrombin (▾-▾), 5 μM TRAP (♦-♦) or no additive (control; ▪-▪) and compared to freshly isolated populations of NCSC (●-●). […] Clonogenic differentiation assays of secondary P75^+/P0^− NCSC populations were assayed in Morrison media as a function of the concentration of the neurogenic differentiation factor, BMP2, and the generation of Neuron-only clones was assessed 14 days after the addition of BMP2. […] Clonogenic differentiation assays of secondary P75^+/P0^− NCSC were preformed in Morrison media supplemented with increasing concentrations of the gliogenic differentiation factor, sDl1 and the generation of Glial-only clones was assessed 14 days after the addition of sDl1. […]
It is well established that quantitative changes in the dosage sensitivity of NCSC populations occur in vitro and in vivo during NCSC self-renewal (Kubu et al., 2002, Dev. Biol. 244:199-214; White et al., 1999, Development 126:4351-4363; White et al., 2001, Neuron 29:57-71). […] The dosage sensitivity of secondary NCSC populations to both BMP2 and sDl1 was evaluated using the clonogenic differentiation assay to quantitate the production of neuron-only clones (BMP2) and glial-only clones (sDl1) after day 18.

primary NCSC populations = assay: Clonogenic differentiation of primary NCSC, dosage sensitivity to Notch ligands; assay type: cell-based, rat; conditions: two week differentiation assay
Description: FIG. 12A depicts an RT-PCR analysis of FGF1.A mRNA expression. Briefly, populations of murine NCSC were treated for 48 hours in Morrison media supplemented with either 7.5 nM sJ1, 5.0 nM sDl1, 10 μg/ml of α-thrombin or 5 μg/ml TRAP, and the steady-state levels of the FGF1.A mRNA were measured using RT-PCR as described elsewhere herein. […] Clonogenic differentiation assays of murine NCSC populations were assessed by maintaining the cells in Morrison media supplemented with increasing concentrations of either sJ1 or sDl1. The results are presented as the number of colonies at day 14 (mean±standard deviation for at least three experiments) originating from three independent cell isolations as function of concentration of sJ1 and sDl1 using two assays of ligand sensitivity: the percentage of glial-only clones (▪-▪; ▴-▴) and the percentage of neuron-containing clones (♦-♦; ▾-▾) produced after 14 days of ligand exposure. Legend: (▴-▴)sJ1/Glial, (▾-▾) sDl1/Glial (♦-♦) sJ1/Neural and (▾-▾) sJDl1/Neural. […] Clonogenic differentiation assays of NCSC populations was assessed by maintaining the cells in Morrison media supplemented with either 7.5 nM sJ1 (▪-▪) or 5 nM sDl1 (▴-▴). The onset of gliogenic differentiation was determined by GFAP immunohistochemistry. Results are presented as the percentage of GFAP-positive clones (mean±standard deviation of three experiments). […]

Substance | DNA synthesis frequency with dnFGFR1 expression [1] | shift in sensitivity to instructive differentiation signals [2] | gliogenic differentiation of the NCSC population (primary NCSC populations)
Thrombin | level consistent with a quiescent cellular phenotype | not observed | 
sJ1: Soluble Jagged1, amino acid residues from about 1 to 1067 (SEQ ID NO:3) of full-length Jagged1 |  | not observed | capable of inducing gliogenic differentiation
